Molecular target: T1, human cloned 5-HT6 receptors (Homo sapiens, UniProt P50406)
T1 construct: expressed in transfected cells; host or cells: Hela cells
Test: 5-HT6 binding affinity, [3H]-LSD displacement on membranes of Hela cells expressing human cloned 5-HT6 receptors
Conditions: [3H]-LSD 3.0 nM, Hela cell membranes, 120 min at room temperature
Experimental: The affinity of test compounds for the serotonin 5-HT6 receptor is evaluated in the following manner. Cultured Hela cells expressing human cloned 5-HT6 receptors are harvested and centrifuged at low speed (1,000×g) for 10.0 min to remove the culture media. The harvested cells are suspended in half volume of fresh physiological phosphate buffered saline solution and recentrifuged at the same speed. This operation is repeated. The collected cells are then homogenized in ten volumes of 50 mM Tris.HCl (pH 7.4) and 0.5 mM EDTA. The homogenate is centrifuged at 40,000×g for 30.0 min and the precipitate is collected. The obtained pellet is resuspended in 10 volumes of Tris.HCl buffer and recentrifuged at the same speed. The final pellet is suspended in a small volume of Tris.HCl buffer and the tissue protein content is determined in aliquots of 10-25 μl volumes. Bovine Serum Albumin is used as the standard in the protein determination according to the method described in Lowry et al., J. Biol. Chem., 193:265 (1951). The volume of the suspended cell membranes is adjusted to give a tissue protein concentration of 1.0 mg/ml of suspension. The prepared membrane suspension (10 times concentrated) is aliquoted in 1.0 ml volumes and stored at −70° C. until used in subsequent binding experiments.
Binding experiments are performed in a 96 well microtiter plate format, in a total volume of 200 μl. […] The test compounds are added in 20.0 μl volume.
The reaction is allowed to proceed in the dark for 120 min at room temperature, at which time, the bound ligand-receptor complex is filtered off on a 96 well unifilter with a Packard Filtermate® 196 Harvester. The bound complex caught on the filter disk is allowed to air dry and the radioactivity is measured in a Packard TopCount® equipped with six photomultiplier detectors, after the addition of 40.0 μl Microscint®-20 scintillant to each shallow well. The unifilter plate is heat-sealed and counted in a PackardTopCount® with a tritium efficiency of 31.0%.
Binding in the presence of varying concentrations of test compound is expressed as a percentage of specific binding in the absence of test compound. The results are plotted as log % bound versus log concentration of test compound. […] A linear regression line of data points is plotted, from which the IC50 value is determined and the Ki value is determined based upon the following equation: Ki=IC50/(1+L/KD) where L is the concentration of the radioactive ligand used and KD is the dissociation constant of the ligand for the receptor, both expressed in nM.

T1 sequence (P50406 whole entry): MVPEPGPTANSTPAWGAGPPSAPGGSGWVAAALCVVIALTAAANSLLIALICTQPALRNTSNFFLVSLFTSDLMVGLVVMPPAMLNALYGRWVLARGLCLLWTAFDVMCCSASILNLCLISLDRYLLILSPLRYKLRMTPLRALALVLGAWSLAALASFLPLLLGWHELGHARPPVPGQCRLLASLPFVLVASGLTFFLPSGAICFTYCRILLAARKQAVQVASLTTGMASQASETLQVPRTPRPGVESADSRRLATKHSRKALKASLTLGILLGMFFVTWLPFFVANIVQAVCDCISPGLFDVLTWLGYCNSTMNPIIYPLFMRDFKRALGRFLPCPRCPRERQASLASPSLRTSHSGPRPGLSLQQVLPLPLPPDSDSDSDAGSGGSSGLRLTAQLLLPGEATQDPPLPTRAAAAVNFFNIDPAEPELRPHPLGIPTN

Molecule | Ki [nM]
3-[(2,3-dichlorophenyl)sulfonyl]-N,N-dimethyl-6,7,8,9-tetrahydro-3H-benzo[e]indol-8-amine [Example 16] | 6
3-[(2,6-dichloroimidazo[2,1-b][1,3]thiazol-5-yl)sulfonyl]-N,N-dimethyl-6,7,8,9-tetrahydro-3H-benzo[e]indol-8-amine [Example 19] | 5
CN(C)C1CCc2ccc3c(ccn3S(=O)(=O)c3ccccc3)c2C1 (stereo not shown) [Example 8, N,N-Dimethyl-3-(Phenylsulfonyl)-6,7,8,9-tetrahydro-3H-benzo[e]indol-8-amine] | 1
CN(C)C1CCc2ccc3c(ccn3S(=O)(=O)c3ccc(F)c(F)c3)c2C1 (stereo not shown) [Example 13, 3-[(3,4-difluorophenyl)sulfonyl]-N,N-dimethyl-6,7,8,9-tetrahydro-3H-benzo[e]indol-8-amine] | 9
CN(C)C1CCc2ccc3c(ccn3S(=O)(=O)c3cccc(Cl)c3)c2C1 (stereo not shown) [Example 15, 3-[(3-chlorophenyl)sulfonyl]-N,N-dimethyl-6,7,8,9-tetrahydro-3H-benzo[e]indol-8-amine] | 2
CN(C)C1CCc2ccc3c(ccn3S(=O)(=O)c3ccc(F)cc3F)c2C1 (stereo not shown) [Example 17, 3-[(2,4-diflorophenyl)sulfonyl]-N,N-dimethyl-6,7,8,9-tetrahydro-3H-benzo[e]indol-8-amine] | 8
CCCNC1CCc2ccc3c(ccn3S(=O)(=O)c3ccc(C)cc3)c2C1 (stereo not shown) [Example 25] | 12

The remaining lines, values ahead:

Ki [nM] | Molecule
79 | CN(C)C1CCc2ccc3c(ccn3S(=O)(=O)c3ccc(OC(F)(F)F)cc3)c2C1 (stereo not shown) [Example 9]
19 | CN(C)C1CCc2ccc3c(ccn3S(=O)(=O)c3ccc(F)cc3)c2C1 (stereo not shown) [Example 11, 3-[(4-fluorophenyl)sulfonyl]-N,N-dimethyl-6,7,8,9-tetrahydro-3H-benzo[e]indol-8-amine]
55 | CN(C)C1CCc2ccc3c(ccn3S(=O)(=O)c3ccc(C(F)(F)F)cc3Cl)c2C1 (stereo not shown) [Example 12]
2 | CN(C)C1CCc2ccc3c(ccn3S(=O)(=O)c3ccccc3Cl)c2C1 (stereo not shown) [Example 14, 3-[(2-chlorophenyl)sulfonyl]-N,N-dimethyl-6,7,8,9-tetrahydro-3H-benzo[e]indol-8-amine]
6 | CN(C)C1CCc2ccc3c(ccn3S(=O)(=O)c3c(Cl)nc4sccn34)c2C1 (stereo not shown) [Example 18, 3-[(6-chloroimidazo[2,1-b][1,3]thiazol-5-yl)sulfonyl]-N,N-dimethyl-6,7,8,9-tetrahydro-3H-benzo[e]indol-8-amine]
59 | Cc1noc(C)c1S(=O)(=O)n1ccc2c3c(ccc21)CCC(N(C)C)C3 (stereo not shown) [Example 20]
103 | Cc1ccc(S(=O)(=O)n2ccc3c4c(ccc32)CCC(NC2CC2)C4)cc1 (stereo not shown) [Example 21]
36 | Cc1ccc(S(=O)(=O)n2ccc3c4c(ccc32)CCC(NC2CCC2)C4)cc1 (stereo not shown) [Example 24]
13 | N,N-dimethyl-3-(2-naphthylsulfonyl)-6,7,8,9-tetrahydro-3H-benzo[e]indol-8-amine [Example 10]

From patent US7671079B2, “Sulfonyltetrahydro-3H-benzo(e)indole-8-amine compounds as 5-hydroxytryptamine-6 ligands” (Wyeth LLC, priority 2003, dated 2010)
